Assay results taken from article PMC4878759 (PLoS ONE, 2016).
Like-named read-outs stand apart in the source and are kept apart here.

What was measured:
VRAC [1] = experiment: VRAC activity by YFP quenching in LN215 cells; assay type: cell-based, human; details: 10 μM
Experimental: LN215 cells, a human glioma cell line, were stably transfected with YFP-F46L/H148Q/I152L, a halide sensor YFP. After the cells were incubated on 96well black plates (Corning Inc., Corning, NY) for 48 hours, each well of the 96-well plate was washed 3 times in PBS (200 μL/wash), and the wells were filled with 50 μl/well isotonic solution (in mM): 140 NaCl, 5 KCl, 20 HEPES (310 mOsm/kg; pH 7.4 with NaOH). In each well, VRAC expressed on the cells were stimulated with addition of 50 μl of hypotonic solutions (in mM): 5 KCl, 20 HEPES, 90 mannitol (120 mOsm/kg). Test compounds (1 μL) were added to each well in a dose dependent manner. After 5 min, 96-well plates were transferred to a plate reader for fluorescence assay. Each well was assayed individually for VRAC-mediated I^- influx by recording fluorescence continuously (400 ms per point) for 7.6 s. YFP fluorescence was recorded 0.4 s for baseline, then 100 μL of 140 mM I^- solution was added at 0.4 s to see the change in fluorescence. Initial iodide influx rate was determined from the initial slope of fluorescence decrease, by nonlinear regression, following infusion of iodide.

VRAC [2] = experiment: Whole-cell patch clamp of hypotonicity-induced VRAC currents in LN215 cells; assay type: cell-based, human; details: 10 μM
Excerpt: Pipettes were pulled from borosilicate glass and had resistances of 3–5 MΩ after fire polishing. […] The liquid junction potential (~2.4 mV) was not corrected. After establishing the whole-cell configuration, whole-cell capacitance and series resistance were compensated with the amplifier circuitry. […] VRAC was activated by exposing LN215 cells to a 25% hypotonic bath solution.

VRAC [3] = system: VRAC; set-up: method as in PMID 24965069, PMID 25163766, PMID 26438191; details: ref [26]–[28]; cited from earlier work
ANO2 = system: ANO2; set-up: method as in PMID 22526416; details: ref [38]; cited from earlier work
ANO1 = system: ANO1; set-up: method as in PMID 22526416; details: ref [38]; cited from earlier work
ENaC = biological target: T1, ENaC (Homo sapiens, UniProt P37088+P51168+P51170); experiment: Short circuit current in T84 cells expressing ENaC; assay type: cell-based; details: 100 μM
T1 construct: endogenous in cells; host or cells: T84 cells, ENaC induced with 2 mM sodium butyrate for 2 days
T1 sequence (P37088 1-669): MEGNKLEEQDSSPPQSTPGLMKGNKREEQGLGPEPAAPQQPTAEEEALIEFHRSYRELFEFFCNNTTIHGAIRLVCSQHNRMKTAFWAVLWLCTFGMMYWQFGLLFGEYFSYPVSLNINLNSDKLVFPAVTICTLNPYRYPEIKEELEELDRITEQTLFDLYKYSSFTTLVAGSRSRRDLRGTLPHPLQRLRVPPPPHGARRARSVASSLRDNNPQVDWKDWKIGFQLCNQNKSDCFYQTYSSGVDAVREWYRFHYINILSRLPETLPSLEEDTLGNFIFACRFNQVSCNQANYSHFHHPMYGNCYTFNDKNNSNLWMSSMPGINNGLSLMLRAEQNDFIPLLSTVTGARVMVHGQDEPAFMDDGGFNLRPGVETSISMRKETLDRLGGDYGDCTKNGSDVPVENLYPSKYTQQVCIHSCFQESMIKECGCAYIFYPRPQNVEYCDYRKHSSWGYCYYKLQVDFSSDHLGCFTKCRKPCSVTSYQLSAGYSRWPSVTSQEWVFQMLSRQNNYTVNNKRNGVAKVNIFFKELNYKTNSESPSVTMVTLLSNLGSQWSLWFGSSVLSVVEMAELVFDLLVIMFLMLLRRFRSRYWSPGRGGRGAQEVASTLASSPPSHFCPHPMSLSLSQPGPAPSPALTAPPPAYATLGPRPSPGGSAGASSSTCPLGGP
T1 sequence (P51168 1-640): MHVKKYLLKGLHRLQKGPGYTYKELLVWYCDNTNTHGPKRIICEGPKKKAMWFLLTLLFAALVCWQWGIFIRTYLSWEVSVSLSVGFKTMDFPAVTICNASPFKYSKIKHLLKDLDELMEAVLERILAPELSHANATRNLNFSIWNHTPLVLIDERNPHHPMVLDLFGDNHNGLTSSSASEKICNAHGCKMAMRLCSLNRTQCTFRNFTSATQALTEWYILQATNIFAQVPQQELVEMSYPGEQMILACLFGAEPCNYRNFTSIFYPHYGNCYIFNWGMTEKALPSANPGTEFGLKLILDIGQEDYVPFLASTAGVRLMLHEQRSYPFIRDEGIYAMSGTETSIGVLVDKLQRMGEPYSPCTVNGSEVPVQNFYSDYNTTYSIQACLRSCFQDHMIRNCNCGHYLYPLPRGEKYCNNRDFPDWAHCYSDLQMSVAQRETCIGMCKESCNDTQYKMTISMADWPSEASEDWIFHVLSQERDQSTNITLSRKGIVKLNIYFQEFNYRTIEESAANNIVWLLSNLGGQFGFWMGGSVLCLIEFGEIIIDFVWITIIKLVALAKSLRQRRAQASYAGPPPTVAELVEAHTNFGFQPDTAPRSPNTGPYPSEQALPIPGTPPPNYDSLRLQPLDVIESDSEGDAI
T1 sequence (P51170 1-649): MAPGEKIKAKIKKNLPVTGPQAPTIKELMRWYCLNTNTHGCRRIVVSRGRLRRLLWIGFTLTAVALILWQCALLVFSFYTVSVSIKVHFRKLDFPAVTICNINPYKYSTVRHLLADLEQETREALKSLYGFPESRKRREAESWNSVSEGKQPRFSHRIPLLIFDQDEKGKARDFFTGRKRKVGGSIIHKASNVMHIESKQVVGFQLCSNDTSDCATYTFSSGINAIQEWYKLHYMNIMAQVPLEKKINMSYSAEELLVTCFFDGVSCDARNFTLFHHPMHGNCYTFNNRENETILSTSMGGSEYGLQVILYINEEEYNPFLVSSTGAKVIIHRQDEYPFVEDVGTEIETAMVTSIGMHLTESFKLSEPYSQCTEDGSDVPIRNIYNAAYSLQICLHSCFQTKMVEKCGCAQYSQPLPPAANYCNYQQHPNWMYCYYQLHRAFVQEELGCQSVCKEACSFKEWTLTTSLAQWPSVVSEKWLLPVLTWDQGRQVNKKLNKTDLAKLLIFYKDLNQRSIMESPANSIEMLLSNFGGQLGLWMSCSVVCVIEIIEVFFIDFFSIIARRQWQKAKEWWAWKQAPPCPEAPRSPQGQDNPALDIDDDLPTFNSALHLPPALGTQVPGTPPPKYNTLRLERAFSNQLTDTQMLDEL
Experimental: Snapwell inserts containing ANO1, ANO2 or CFTR expressing FRT cells, ENaC expressing T-84 cells or the human primary airway epithelial cells were mounted in Ussing chambers (Physiologic Instruments, San Diego, CA). To induce transcriptional ENaC induction, the polarized T84 cells were incubated with 2 mM sodium butyrate for 2 days. To increase the functional expression of ANO1, the human airway epithelial cells were treated with IL-4 (10 ng/mL) for 2 days. For T-84 and the human primary airway epithelial cells, the apical and basolateral bath were filled with HCO3^—buffered solution containing (in mM): 120 NaCl, 5 KCl, 1 MgCl2, 1 CaCl2, 10 D-glucose, 2.5 HEPES, and 25 NaHCO3 (pH 7.4). For FRT cells, the basolateral bath was filled with the HCO3^—buffered solution and the apical bath was filled with a half-Cl^- solution. In the half-Cl^- solution 65 mM NaCl in the HCO3^—buffered solution was replaced by Na-gluconate. […] ATP was applied to the apical bath solution to induce intracellular calcium increase. […] Apical membrane currents were measured with an EVC4000 Multi-Channel V/I Clamp (World Precision Instruments, Sarasota, FL) and PowerLab 4/35 (AD Instruments, Castle Hill, Australia). Data were analyzed using Labchart Pro 7 (AD Instruments). The sampling rate was 4 Hz.
ANO1 was activated by either 10 μM Eact, an ANO1 activator, or 100 μM ATP.

SMILES	inhibition of ANO2 (ANO2)	inhibition of ANO1 (ANO1)	other results
CCCCC1(C2CCCC2)Cc2cc(OCCCC(=O)O)c(Cl)c(Cl)c2C1=O (centres unmarked) [DCPIB]			block of VRAC activity (VRAC [1]): completely blocked; effect on hypotonicity-induced VRAC currents (VRAC [2]): almost completely blocked
O=C(O)c1cc([N+](=O)[O-])ccc1NCCCc1ccccc1 [NPPB, 5-nitro-2-(3-phenylpropylamino)-benzoic acid]	inhibited	inhibited	block of VRAC activity (VRAC [3]): potently blocked
N=C(N)NC(=O)c1nc(Cl)c(N)nc1N [amiloride]			effect on ENaC channel activity (ENaC): fully blocked
O=C(O)c1cccnc1Nc1cccc(C(F)(F)F)c1 [niflumic acid]	inhibited	inhibited	
